The values that follow come from patent publication US20240008524A1, “CONSUMABLE” (Nicoventures Trading Limited, priority 2020, published 2024).

This data set in a line: Water solubility of flavoring agents and their flavor glucosides. The conditions noted are these: for Glucoside water solubility: flavoring agent in the form of its flavor glucoside.
The mark [1] stands for this setting: free flavoring agent, not bound to sugar, water.

≈ marks a conversion by molar mass, not a printed value. Where two headings read alike, the source gives them in different places.

As for `CCCCCCO[C@@H]1O[C@H](CO)[C@@H](O)[C@H](O)[C@H]1O` [1-Hexanol glucoside, hex-1-yl-O-β-D-glucopyranoside], the “Glucoside water solubility” value (water) stood at 676 mg/mL.
Still for that read-out and setting: in the case of `C=CC(CCCCC)O[C@@H]1O[C@H](CO)[C@@H](O)[C@H](O)[C@H]1O` (stereo partly drawn) [1-Octen-3-ol glucoside, 1-octen-3-yl-O-β-D-glucopyranoside] it was 200 mg/mL.
Turning to `C=CC(O)CCCCC` (centres unmarked) [1-Octen-3-ol], the solubility (water) worked out at 1.84 mg/mL (≈ 14.3 mM).
Turning to `OC[C@H]1O[C@@H](OCCc2ccccc2)[C@H](O)[C@@H](O)[C@@H]1O` [2-Phenylethanol glucoside, 2-phenyleth-1-yl-O-β-D-glucopyranoside], where the note is “water”, the “Glucoside water solubility” value came out at 833 mg/mL.
On to `OCCc1ccccc1` [2-Phenylethanol], for which, under setting [1], the “Flavoring Agent water solubility” value turned out to be 21.99 mg/mL.
Regarding `CC1=CCC(C(C)(C)O)CC1` (stereo not drawn) [Alpha-Terpineol], the solubility (water) amounted to 0.71 mg/mL (≈ 4.6 mM).
On to `Cc1ccc(C(C)C)cc1O` [Carvacrol], for which the “Flavoring Agent water solubility” value stood at 1.25 mg/mL.
On to `CC(C)=CCCC(C)CCO[C@@H]1O[C@H](CO)[C@@H](O)[C@H](O)[C@H]1O` (stereo partly drawn) [Citronellol glucoside, 3,7-dimethyl-6-octen-1-yl-O-β-D-glucopyranoside], for which, for the setting “water”, the “Glucoside water solubility” value was determined as 519 mg/mL.
Under “water”, `CC(C)=CCCC(C)CCO` (centres unmarked) [Citronellol] showed a solubility of 0.106 mg/mL (≈ 0.678 mM).
For the compound `CCc1occc(=O)c1O[C@@H]1O[C@H](CO)[C@@H](O)[C@H](O)[C@H]1O` [Ethylmaltol glucoside, 2-ethyl-4H-pyran-4-one-3-O-β-D-glucopyranoside], where the note is “water”, the “Glucoside water solubility” value was 662 mg/mL.
`CCc1occc(=O)c1O` [Ethylmaltol]: the “Flavoring Agent water solubility” value under setting [1] was 24.23 mg/mL.
Consider `C=CCc1ccc(O[C@@H]2O[C@H](CO)[C@@H](O)[C@H](O)[C@H]2O)c(OC)c1` [Eugenol glucoside, 2-methoxy-4-(2-propen-1-yl)phenyl-O-β-D-glucopyranoside], for which, where the note is “water”, the “Glucoside water solubility” value amounted to 15.1 mg/mL.
Compound `C=CCc1ccc(O)c(OC)c1` [Eugenol] yielded a solubility (water) of 2.46 mg/mL (≈ 15 mM).
In the case of `CC(C)=CCCC(C)=CCCC(C)=CCO[C@@H]1O[C@H](CO)[C@@H](O)[C@H](O)[C@H]1O` [Farnesol glucoside, 3,7,11-trimethyl-2,6,10-dodecatrien-1-yl-O-β-D-glucopyranoside], where the note is “water”, the “Glucoside water solubility” value worked out at 1 mg/mL.
Take `CC(C)=CCCC(C)=CCCC(C)=CCO` [Farnesol]: the solubility (water) was 0.00129 mg/mL (≈ 0.0058 mM).
Take `CC12CCC(C1)C(C)(C)C2O[C@@H]1O[C@H](CO)[C@@H](O)[C@H](O)[C@H]1O` (stereo partly drawn) [Fenchol glucoside, 1,3,3-trimethyl-bicyclo[2.2.1]heptan-2-yl-O-β-D-glucopyranoside]: the “Glucoside water solubility” value (water) is 4 mg/mL.
Where the note is “water”, `CC12CCC(C1)C(C)(C)C2O` (centres unmarked) [Fenchol] had a solubility of 0.461 mg/mL (≈ 2.99 mM).
With `CC1=C(O[C@@H]2O[C@H](CO)[C@@H](O)[C@H](O)[C@H]2O)C(=O)C(C)O1` (stereo partly drawn) [Furaneol glucoside, 2,5-dimethyl-3(2H)-furanone-4-O-β-D-glucopyranoside], the “Glucoside water solubility” value (water) turned out to be 731 mg/mL.
The compound `CC1=C(O)C(=O)C(C)O1` (centres unmarked) [Furaneol] displayed a solubility (water) of 18.5 mg/mL (≈ 144 mM).
In the case of `CC(C)=CCC/C(C)=C/CO[C@@H]1O[C@H](CO)[C@@H](O)[C@H](O)[C@H]1O` [Geraniol glucoside, (2E)-3,7-dimethyl-2,6-octadien-1-yl-O-β-D-glucopyranoside], where the note is “water”, the “Glucoside water solubility” value is 627 mg/mL.
For the setting “water”, `CC(C)=CCC/C(C)=C/CO` [Geraniol] registered a solubility of 0.1 mg/mL (≈ 0.648 mM).
Regarding `CCC1OC(C)=C(O)C1=O` (centres unmarked) [Homofuraneol], under setting [1], the “Flavoring Agent water solubility” value was found to be 6.178 mg/mL.
With `C=CC(C)(CCC=C(C)C)O[C@@H]1O[C@H](CO)[C@@H](O)[C@H](O)[C@H]1O` (stereo partly drawn) [Linalool glucoside, 1-ethenyl-1,5-dimethyl-4-hexen-1-yl-O-β-D-glucopyranoside], where the note is “water”, the “Glucoside water solubility” value worked out at 564 mg/mL.
Take `C=CC(C)(O)CCC=C(C)C` (centres unmarked) [Linalool]: the solubility (water) was determined as 0.68 mg/mL (≈ 4.41 mM).
On to `Cc1occc(=O)c1O[C@@H]1O[C@H](CO)[C@@H](O)[C@H](O)[C@H]1O` [Maltol glucoside, 2-methyl-4H-pyran-4-one-3-O-β-D-glucopyranoside], for which the “Glucoside water solubility” value (water) stood at 535 mg/mL.
For the compound `Cc1occc(=O)c1O` [Maltol], the solubility (water) was 10.9 mg/mL (≈ 86.4 mM).
Consider `CCC1OC(=O)C(O[C@@H]2O[C@H](CO)[C@@H](O)[C@H](O)[C@H]2O)=C1C` (stereo partly drawn) [Maple furanone glucoside, 5-ethyl-3-hydroxy-4-methyl-2(5H)-furanone-3-O-β-D-glucopyranoside], for which the “Glucoside water solubility” value (water) is 772 mg/mL.
For the compound `CCC1OC(=O)C(O)=C1C` (centres unmarked) [Maple furanone], the “Flavoring Agent water solubility” value under setting [1] amounted to 74.39 mg/mL.
On to `CC1CCC(C(C)C)C(O)C1` (centres unmarked) [Menthol], for which the concentration in solution (water) (solubility) was 0.49 mg/mL (≈ 3.14 mM).
As to `COC(=O)c1ccccc1N[C@@H]1O[C@H](CO)[C@@H](O)[C@H](O)[C@H]1O` [Methylanthranilate glucoside, methyl-2-aminobenzoate-N-β-D-glucopyranoside], the “Glucoside water solubility” value (water) worked out at 35 mg/mL.
On the same count and under the same terms, in the case of `CC1(C)C2CC=C(CO[C@@H]3O[C@H](CO)[C@@H](O)[C@H](O)[C@H]3O)C1C2` (stereo partly drawn) [Myrtenol glucoside, 6,6-dimethylbicyclo(3.1.1)hept-2-ene-2-methyl-O-β-D-glucopyranoside] it was 525 mg/mL.
On to `CC1(C)C2CC=C(CO)C1C2` (centres unmarked) [Myrtenol], for which, under setting [1], the “Flavoring Agent water solubility” value turned out to be 0.261 mg/mL.
Turning to `CC(C)=CCC/C(C)=C\CO[C@@H]1O[C@H](CO)[C@@H](O)[C@H](O)[C@H]1O` [Nerol glucoside, (2Z)-3,7-dimethyl-2,6-octadien-1-yl-O-β-D-glucopyranoside], the “Glucoside water solubility” value (water) was determined as 16.6 mg/mL.
Take `CC(C)=CCC/C(C)=C\CO` [Nerol]: under “water”, the concentration in solution (solubility) was 0.256 mg/mL (≈ 1.66 mM).
Turning to `C=C(C)C1CC=C(CO[C@@H]2O[C@H](CO)[C@@H](O)[C@H](O)[C@H]2O)CC1` (stereo partly drawn) [Perillyl alcohol glucoside, p-mentha-1,8-dien-7-yl-O-β-D-glucopyranoside], the “Glucoside water solubility” value (water) came out at 485 mg/mL.
`C=C(C)[C@@H]1CC=C(CO)CC1` [Perillyl alcohol]: the solubility (water) worked out at 0.471 mg/mL (≈ 3.09 mM).
Turning to `Oc1ccc2c(c1)OCO2` [Sesamol], the “Flavoring Agent water solubility” value under setting [1] amounted to 14.65 mg/mL.
Take `CC1=C(O[C@@H]2O[C@H](CO)[C@@H](O)[C@H](O)[C@H]2O)C(=O)OC1C` (stereo partly drawn) [Sotolon glucoside, 4,5-dimethylfuran-2(5H)-one-3-O-β-D-glucopyranoside]: where the note is “water”, the “Glucoside water solubility” value is 502 mg/mL.
Take `CC1=C(O)C(=O)OC1C` (centres unmarked) [Sotolon]: under setting [1], the “Flavoring Agent water solubility” value came to 22.28 mg/mL.
Turning to `COc1cc(CO)ccc1O[C@@H]1O[C@H](CO)[C@@H](O)[C@H](O)[C@H]1O` [Vanillin-Alcohol glucoside, 3-methoxy-benzyl alcohol-4-O-β-D-glucopyranoside], the “increase of water solubility (glucoside vs flavoring agent)” value worked out at 32 ×. The “Glucoside water solubility” value (water) was 62 mg/mL.
`COc1cc(CO)ccc1O` [Vanillin-Alcohol]: under setting [1], the “Flavoring Agent water solubility” value was 2 mg/mL. Further, the water solubility entry (free flavoring agent, at 25° C.) was “approximately 2 g/I”.
In the case of `CC/C=C\CCO[C@@H]1O[C@H](CO)[C@@H](O)[C@H](O)[C@H]1O` [cis-3-Hexen-1-ol glucoside, (3Z)-3-hexen-1-yl-O-β-D-glucopyranoside], the “Glucoside water solubility” value (water) was 598 mg/mL.
`CC/C=C\CCO` [cis-3-Hexen-1-ol]: the concentration in solution (water) (solubility) came to 16 mg/mL (≈ 160 mM).
Regarding “(2/5)-ethyl-5 (or 2)-methyl-3(2H)-furanone-4-O-β-D-glucopyranoside [Homofuraneol glucoside]”, the “Glucoside water solubility” value (water) turned out to be 749 mg/mL.
As for “(S)-2-(4-methyl-3-cyclohexenyl)-2-propanyl-O-β-D-glucopyranoside [Alpha-Terpineol glucoside]”, the “Glucoside water solubility” value (water) was 172 mg/mL.
